Results published in article PMC6155162, “Identification of mesothelioma-specific sialylated epitope recognized with monoclonal antibody SKM9-2 in a mucin-like membrane protein HEG1” (Scientific Reports, 2018).

B1: 3 kb: FLAG-tagged N-terminal deletion mutant hHEG1 (285-1481) (protein)
chain: MSALLILALVGAAVADYKDDDDKLAAANSSIDLSWLHFYRTAASSPLLDLSSSSESTEKLNNSTGLQSSSVSQTKTMHVATVFTDGGPRTLRSLTVSLGPVSKTEGFPKDSRIATTSSSVLLSPSAVESRRNSRVTGNPGDEEFIEPSTENEFGLTSLRWQNDSPTFGEHQLASSSEVQNGSPMSQTETVSRSVAPMRGGEITAHWLLTNSTTSADVTGSSASYPEGVNASVLTQFSDSTVQSGGSHTALGDRSYSESSSTSSSESLNSSAPRGERSIAGISYGQVRGTAIEQRTSSDHTDHTYLSSTFTKGERALLSITDNSSSSDIVESSTSYIKISNSSHSEYSSFFHAQTERSNISSYDGEYAQPSTESPVLHTSNLPSYTPTINMPNTSVVLDTDAEFVSDSSSSSSSSSSSSSSSSSSSSGPPLPLPSVSQSHHLFSSILPSTRASVHLLKSTSDASTPWSSSPSPLPVSLTTSTSAPLSVSQTTLPQSSSTPV
B2: 2.2 kb: FLAG-tagged N-terminal deletion mutant hHEG1 (712-1481) (protein)
chain: MSALLILALVGAAVADYKDDDDKLAAANSSIDLSSYDGEYAQPSTESPVLHTSNLPSYTPTINMPNTSVVLDTDAEFVSDSSSSSSSSSSSSSSSSSSSSGPPLPLPSVSQSHHLFSSILPSTRASVHLLKSTSDASTPWSSSPSPLPVSLTTSTSAPLSVSQTTLPQSSSTPVLPRARETPVTSFQTSTMTSFMTMLHSSQTADLKSQSTPHQEKVITESKSPSLVSLPTESTKAVTTNSPLPPSLTESSTEQTLPATSTNLAQMSPTFTTTILKTSQPLMTTPGTLSSTASLVTGPIAVQTTAGKQLSLTHPEILVPQISTEGGISTERNRVIVDATSGLIPLTSVPTSAKEMTTKLGVTAEYSPASRSLGTSPSPQTTVVSTAEDLAPKSATFAVQSSTQSPTTLSSSASVNSCAVNPCLHNGECVADNTSRGYHCRCPPSWQGDDCSVDVNECLSNPCPSTAMCNNTQGSFICKCPVGYQLEKGICNLVRTFVTEF
B3: 2 kb: FLAG-tagged N-terminal deletion mutant hHEG1 (771-1481) (protein)
chain: MSALLILALVGAAVADYKDDDDKLAAANSSIDLSSGPPLPLPSVSQSHHLFSSILPSTRASVHLLKSTSDASTPWSSSPSPLPVSLTTSTSAPLSVSQTTLPQSSSTPVLPRARETPVTSFQTSTMTSFMTMLHSSQTADLKSQSTPHQEKVITESKSPSLVSLPTESTKAVTTNSPLPPSLTESSTEQTLPATSTNLAQMSPTFTTTILKTSQPLMTTPGTLSSTASLVTGPIAVQTTAGKQLSLTHPEILVPQISTEGGISTERNRVIVDATSGLIPLTSVPTSAKEMTTKLGVTAEYSPASRSLGTSPSPQTTVVSTAEDLAPKSATFAVQSSTQSPTTLSSSASVNSCAVNPCLHNGECVADNTSRGYHCRCPPSWQGDDCSVDVNECLSNPCPSTAMCNNTQGSFICKCPVGYQLEKGICNLVRTFVTEFKLKRTFLNTTVEKHSDLQEVENEITKTLNMCFSALPSYIRSTVHASRESNAVVISLQTTFSLASN

Tests used:
SKM9-2 [1] = assay: SPR analysis of binding between SKM9-2 and soluble His-tagged minimum epitope peptides (SKMepmin); details: for Kd: His-tagged SKMepmin secreted from transfected HEK293T immobilized on Ni2+-binding sensor chip NTA, analyte 5 µg/mL SKM9-2, running buffer 10 mM HEPES pH 8.1, 150 mM NaCl, 0.005% Tween-20, 50 µM EDTA, read-out: KD (M), dissociation constant; for affinity of SKM9-2 in contrast to SKMepmin3 (in words): analyte 5 µg/mL SKM9-2, ligand on sensor chip NTA; for dissociation rate between SKM9-2 and epitope peptide (in words) / association rate between SKM9-2 and epitope peptide (in words): analyte 5 µg/mL SKM9-2, change caused by the substitution
Description: Figure 5 SPR analysis of the binding kinetics between SKM9-2 and mutants of minimum epitope. A soluble His-tagged mutant of minimum epitope (SKMepmin) was secreted from transfected HEK293T and immobilized as a ligand on the Ni^2+-binding sensor chip NTA. The upper sensorgrams show the binding kinetics of analyte (5 µg/mL of SKM9-2) to SKMepmins. The control without any peptide is shown as “No peptide” and the negative control peptide cycle is shown as “Control peptide”. The glycan-digested SKMepmin3 that was treated with Neuraminidase A and O-Glycosidase was used as the negative control peptide. The dissociation constant in the lower bar graph was calculated using the manufacturer’s instructions. RU, response units; Signal sequence, the artificial signal sequence (MAPLLLLLLPLLLLPPAAP).
Figure 7 SPR analysis of bindings of lectin and SKM9-2 to glycosidase-treated SKMepmin3. Purified SKMepmin3 was incubated with α2-3 Neuraminidase S, Neuraminidase A, or Neuraminidase A + O-Glycosidase; and then was immobilized as a ligand on Ni^2+-binding sensor chip NTA. The analytes were used at a concentration of 5 µg/mL. (a) ABA, (b) Jacalin, (c) rACG, (d) SKM9-2. Glycosidase-digested sample was not tested in the experiment with rACG.
Cell lysate or SKMepmin3 was treated with α2-3 Neuraminidase S, α2-3, 6, 8, 9 Neuraminidase A, and O-Glycosidase (New England Biolabs Japan, Tokyo, Japan) in 50 mM sodium phosphate (pH 7.5) containing 1% Nonidet P-40, according to the manufacturer’s instructions. The cell lysate sample was resolved by 4–15% or 6% SDS-PAGE under reducing conditions and detected by western blotting using SKM9-2. The analysis of the SKMepmin3 sample was performed by SPR.
The binding of SKM9-2 or lectin to SKMepmin was measured by SPR analysis. SKMepmin was diluted with a running buffer (10 mM HEPES buffer (pH 8.1) containing 150 mM NaCl and 0.005% Tween-20), flowed on Ni^2+-binding sensor chip NTA (GE Healthcare), and affinity-bound through His-tag as a ligand on the sensor chip. Binding analysis of SKM9-2 was performed in a running buffer containing 50 µM EDTA. A non-treated flow cell was used as a reference cell. SKM9-2, anti-sialyl Lewis^X (CSLEX1, Becton, Dickinson and Company Japan, Tokyo, Japan), rACG (Wako Pure Chemical Industries), biotinylated ABA (J-Oil Mills, Inc., Tokyo, Japan), or biotinylated Jacalin (Vector Laboratories, Inc., Burlingame, CA, USA) (each 5 µg/mL) was injected as an analyte with the running buffer. As a regeneration buffer, 350 mM EDTA was used. The dissociation constant was calculated using the manufacturer’s instructions.

SKM9-2 [2] = assay: Western blotting using SKM9-2 of HEG1 truncated mutants and epitope-fused GPI-anchor proteins; assay type: binding; details: cell lysates of transfected HEK293T, SDS-PAGE under reducing conditions, 1 µg/mL SKM9-2
Description: Figure 1 SKM9-2 binding to truncated mutants of HEG1. Schematics of full-length HEG1 (Full) and the truncated mutants are indicated on the left side and the results of western blotting using SKM9-2 are shown on the right side. Truncated amino acid position, which is based on a full-length variant of HEG1 containing exon 6, is shown as a number in the schematic of domain structure. The region of the SKM9-2 epitope is shown as a red square. […] SLURP GPI-anchor protein[18] was used as a fused GPI-anchor protein (violet square). The terminal sequences of the HEG1 peptide are shown in the western blot lane. The samples were resolved by 6% SDS-PAGE (a and b) or 4–15% SDS-PAGE (c) under reducing conditions and were detected by western blotting using SKM9-2. Cyt, cytoplasmic domain; EGFs, EGF related domains; Ser/Thr, serine/threonine rich region; SLURP, secreted lymphocyte antigen-6/urokinase-type plasminogen activator receptor-related peptide; SP, signal peptide; TM, transmembrane domain. Full-length blots are presented in Supplementary Fig. S7.
Figure 2 Epitope mapping of SKM9-2. Schematic of epitope peptides (left side) and western blots resolved by 4–15% SDS-PAGE (right side) are shown. The HEG1 peptide sequences are indicated in the western blot lane. Each epitope peptide was fused with a signal peptide (dashed line square) and a SLURP GPI-anchor protein (violet square). Full-length blots are presented in Supplementary Fig. S8.
Figure 3 Alanine scanning of SKM9-2 epitope. […] Cell lysates of transfected HEK293T (upper panel) or transfected ACC-MESO1 (lower panel) were resolved by 4–15% SDS-PAGE and analyzed by western blotting using SKM9-2. (b) S897A mutant of FLAG-tagged HEG1 in HEK293T was resolved by 4–15% SDS-PAGE and analyzed by western blotting using SKM9-2 (upper panel) or anti-FLAG mAb (lower panel). Native HEG1 in ACC-MESO4 and FLAG-tagged HEG1 without mutation in HEK293T were used as controls. Full-length blots are presented in Supplementary Fig. S9.
Sequences of tested HEG1 are shown in Supplementary Dataset. Full-length HEG1 cDNA was synthesized from total RNA purified with TRIzol reagent (Thermo Fisher Scientific) from ACC-MESO-4, using an oligo dT primer and SuperScript II RNase H reverse transcriptase (Thermo Fisher Scientific). cDNA encoding the HEG1 open reading frame was amplified by PCR using PrimeSTAR HS DNA Polymerase (Takara Bio Inc., Shiga, Japan). The HEG1 cDNA was cloned and inserted into the pcDNA3.1(−) mammalian expression vector (Thermo Fisher Scientific). For analyses of N-terminal truncation, we inserted mutants into pFLAG-CMV1 (Sigma-Aldrich Japan K.K., Tokyo, Japan). For analyses of C-terminal deletion lacking the transmembrane domain, we used mutants that were fused with a GPI-anchor protein, SLURP1-gpi[18], in pcDNA3.1(+) (Thermo Fisher Scientific) (Supplementary Dataset). Alanine substituted mutants were prepared using site directed mutagenesis. To produce a soluble epitope peptide, a modified HEG1 signal peptide and a C-terminal tag containing the FLAG tag plus a polyhistidine sequence were used in the mammalian expression vector pEF-BOS[39] (Supplementary Dataset). The plasmid constructs were transfected with Lipofectamine 3000 (Thermo Fisher Scientific). The HEG1 peptide-expressing 293 H clone was obtained by selection with geneticin (Thermo Fisher Scientific).
Monolayer cells were solubilized with 20 mM Tris buffer (pH 8.0) containing 1% SDS, 1 mM phenylmethylsulfonyl fluoride, 125 mU/mL Benzonase Nuclease (Merck Millipore Co., Tokyo, Japan) (25 µL/cm^2 culture surface area). The lysate (10 µL/lane) was resolved by SDS-PAGE under reducing conditions using 6% polyacrylamide gels or 4–15% precast gels (Bio-Rad Laboratories Inc., Hercules, CA, USA). […]

| Molecule | Kd (SKM9-2 [1]) | affinity of SKM9-2 in contrast to SKMepmin3 (in words) (SKM9-2 [1]) | dissociation rate between SKM9-2 and epitope peptide (in words) (SKM9-2 [1]) | recognition by SKM9-2 upon western blot analysis (SKM9-2 [2]) | association rate between SKM9-2 and epitope peptide (in words) (SKM9-2 [1]) |
| --- | --- | --- | --- | --- | --- |
| MAPLLLLLLPLLLLPPAAPGGSKAPTLVSLPAGGDYKDDDDKHHHHHHHH [SKMepmin7] | 6.17e-08 M | further reduced | – | – | – |
| MAPLLLLLLPLLLLPPAAPGGSKSPSLVSLPTGGDYKDDDDKHHHHHHHH [SKMepmin1] | 8.75e-09 M | – | – | – | – |
| MAPLLLLLLPLLLLPPAAPGGSKAPSLVALPAGGDYKDDDDKHHHHHHHH [SKMepmin8] | 3.25e-08 M | decreased | increased | – | – |
| MAPLLLLLLPLLLLPPAAPGGSKAPSLVTLPAGGDYKDDDDKHHHHHHHH [SKMepmin9] | 6.38e-09 M | restored | increased | – | – |
| 7.627: 887-EKVITESKSPSLVS-900 -SLURP GPI | – | – | – | not bound | – |
| MAPLLLLLLPLLLLPPAAPGGAKAPSLVSLPAGGDYKDDDDKHHHHHHHH [SKMepmin4] | 1.15e-08 M | decreased | – | – | decreased |
| MAPLLLLLLPLLLLPPAAPGGSKAPALVSLPAGGDYKDDDDKHHHHHHHH [SKMepmin6] | 4.2e-08 M | decreased | increased | – | – |
| 7.626: 887-EKVITESKSPSLVSLP-902 -SLURP GPI | – | – | – | weakly recognized | – |
| MAPLLLLLLPLLLLPPAAPGGSKAPSLVSLPTGGDYKDDDDKHHHHHHHH [SKMepmin2] | 6.22e-09 M | – | – | – | increased |
| 7.62: 887-EKVITESKSPSLVSLPTEST-906 -SLURP GPI | – | – | – | clearly detected | – |
| MAPLLLLLLPLLLLPPAAPGGTKAPSLVSLPAGGDYKDDDDKHHHHHHHH [SKMepmin5] | 2.9e-09 M | restored | hardly influenced | – | hardly influenced |
| B1 | – | – | – | recognized | – |
| B2 | – | – | – | recognized | – |
| B3 | – | – | – | recognized | – |
